Test results as given in patent publication US8959984B2, “Proteome-wide quantification of small molecule binding to cellular target proteins” (priority 2007, dated 2015).

What was measured:
[1] = molecular target: T1, RPSA (IPI00413108) (Homo sapiens, UniProt P08865); assay: binding to VI16742 beads (HeLa lysate, SILAC MS)
T1 construct: endogenous in cells; host or cells: HeLa S3
In short: (§1)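 Specific retention on the inhibitor resin served as the read-out of binding. The bait is a broadly selective kinase inhibitor built on a pyrido[2,3-d]pyrimidine scaffold, used for affinity capture from lysate.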

[2] = molecular target: T2, HGK/ZC1 (MAP4K4, IPI00604647) (Homo sapiens, UniProt O95819); assay: binding to VI16742 beads (HeLa lysate, SILAC MS)
T2 construct: endogenous in cells; host or cells: HeLa S3
In short: as §1

[3] = molecular target: T3, PKN2 (IPI00002804) (Homo sapiens, UniProt Q16513); assay: binding to VI16742 beads (HeLa lysate, SILAC MS)
T3 construct: endogenous in cells; host or cells: HeLa S3
In short: as §1

[4] = molecular target: T4, 2-PDE (IPI00174390) (Homo sapiens, UniProt Q6L8Q7); assay: binding to VI16742 beads (HeLa lysate, SILAC MS)
T4 construct: endogenous in cells; host or cells: HeLa S3 cell lysate
T4 sequence (Q6L8Q7 43-609): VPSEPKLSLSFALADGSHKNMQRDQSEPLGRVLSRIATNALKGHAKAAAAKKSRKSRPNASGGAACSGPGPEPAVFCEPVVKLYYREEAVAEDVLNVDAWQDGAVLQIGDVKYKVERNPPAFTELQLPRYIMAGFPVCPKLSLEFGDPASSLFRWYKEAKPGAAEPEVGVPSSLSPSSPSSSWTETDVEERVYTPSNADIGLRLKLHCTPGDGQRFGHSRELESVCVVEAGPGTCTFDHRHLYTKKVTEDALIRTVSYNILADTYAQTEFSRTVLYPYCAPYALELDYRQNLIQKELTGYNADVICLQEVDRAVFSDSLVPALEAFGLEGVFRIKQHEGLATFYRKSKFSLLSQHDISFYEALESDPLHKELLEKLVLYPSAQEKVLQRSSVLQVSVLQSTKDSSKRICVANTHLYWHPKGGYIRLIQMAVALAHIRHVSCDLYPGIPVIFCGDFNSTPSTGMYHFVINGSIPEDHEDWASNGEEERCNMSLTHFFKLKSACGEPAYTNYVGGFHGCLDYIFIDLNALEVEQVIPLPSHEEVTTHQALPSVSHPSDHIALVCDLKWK
In short: as §1

[5] = molecular target: T5, MAP2K4 (IPI00789335) (Homo sapiens, UniProt P45985); assay: binding to VI16742 beads (HeLa lysate, SILAC MS)
T5 construct: endogenous in cells; host or cells: HeLa S3
T5 sequence (P45985 1-399): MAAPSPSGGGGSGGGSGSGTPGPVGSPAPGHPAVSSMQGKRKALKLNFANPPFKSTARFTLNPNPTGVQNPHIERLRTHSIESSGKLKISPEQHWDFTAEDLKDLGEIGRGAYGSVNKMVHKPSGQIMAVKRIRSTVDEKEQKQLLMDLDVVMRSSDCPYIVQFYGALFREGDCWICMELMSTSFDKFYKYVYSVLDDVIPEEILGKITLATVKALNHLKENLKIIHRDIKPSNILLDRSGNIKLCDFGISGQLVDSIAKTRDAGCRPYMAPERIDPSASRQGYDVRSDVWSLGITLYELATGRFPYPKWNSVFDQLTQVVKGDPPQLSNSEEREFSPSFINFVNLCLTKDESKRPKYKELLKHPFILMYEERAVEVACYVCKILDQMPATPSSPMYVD
In short: as §1

[6] = molecular target: T6, MAP2K2 (IPI00003783) (Homo sapiens, UniProt P36507); assay: binding to VI16742 beads (HeLa lysate, SILAC MS)
T6 construct: endogenous in cells; host or cells: HeLa S3
In short: as §1

[7] = molecular target: T7, EphB2 (Homo sapiens, UniProt P29323)
T7 sequence (P29323 19-1055): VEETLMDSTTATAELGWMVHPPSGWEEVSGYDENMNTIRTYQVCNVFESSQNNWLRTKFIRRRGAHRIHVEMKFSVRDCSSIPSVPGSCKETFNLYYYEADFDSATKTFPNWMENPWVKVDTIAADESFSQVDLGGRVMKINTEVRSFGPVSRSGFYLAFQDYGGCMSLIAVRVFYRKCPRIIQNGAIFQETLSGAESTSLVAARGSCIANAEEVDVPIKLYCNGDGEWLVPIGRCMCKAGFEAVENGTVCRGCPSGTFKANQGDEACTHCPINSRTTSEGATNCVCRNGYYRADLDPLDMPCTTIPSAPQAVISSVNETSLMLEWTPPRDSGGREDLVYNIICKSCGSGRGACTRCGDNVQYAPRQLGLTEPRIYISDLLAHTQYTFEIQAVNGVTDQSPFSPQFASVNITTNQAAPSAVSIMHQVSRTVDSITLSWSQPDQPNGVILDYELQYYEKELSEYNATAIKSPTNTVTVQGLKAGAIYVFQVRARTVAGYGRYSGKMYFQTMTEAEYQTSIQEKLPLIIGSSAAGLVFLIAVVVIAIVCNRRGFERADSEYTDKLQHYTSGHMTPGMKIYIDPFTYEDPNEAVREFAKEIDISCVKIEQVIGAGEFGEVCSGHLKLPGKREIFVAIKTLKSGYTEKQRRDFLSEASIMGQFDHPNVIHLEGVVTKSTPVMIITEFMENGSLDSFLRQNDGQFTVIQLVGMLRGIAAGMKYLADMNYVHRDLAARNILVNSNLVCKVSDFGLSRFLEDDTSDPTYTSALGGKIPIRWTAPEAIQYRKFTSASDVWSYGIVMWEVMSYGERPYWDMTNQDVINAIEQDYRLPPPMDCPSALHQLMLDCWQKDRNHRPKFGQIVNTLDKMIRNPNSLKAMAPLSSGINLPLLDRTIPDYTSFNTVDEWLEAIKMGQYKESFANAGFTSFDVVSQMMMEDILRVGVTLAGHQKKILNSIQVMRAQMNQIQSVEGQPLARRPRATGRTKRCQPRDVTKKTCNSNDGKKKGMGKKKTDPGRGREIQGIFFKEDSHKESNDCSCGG

[8] = control beads vs first incubation

T3 sequence (Q16513 whole entry): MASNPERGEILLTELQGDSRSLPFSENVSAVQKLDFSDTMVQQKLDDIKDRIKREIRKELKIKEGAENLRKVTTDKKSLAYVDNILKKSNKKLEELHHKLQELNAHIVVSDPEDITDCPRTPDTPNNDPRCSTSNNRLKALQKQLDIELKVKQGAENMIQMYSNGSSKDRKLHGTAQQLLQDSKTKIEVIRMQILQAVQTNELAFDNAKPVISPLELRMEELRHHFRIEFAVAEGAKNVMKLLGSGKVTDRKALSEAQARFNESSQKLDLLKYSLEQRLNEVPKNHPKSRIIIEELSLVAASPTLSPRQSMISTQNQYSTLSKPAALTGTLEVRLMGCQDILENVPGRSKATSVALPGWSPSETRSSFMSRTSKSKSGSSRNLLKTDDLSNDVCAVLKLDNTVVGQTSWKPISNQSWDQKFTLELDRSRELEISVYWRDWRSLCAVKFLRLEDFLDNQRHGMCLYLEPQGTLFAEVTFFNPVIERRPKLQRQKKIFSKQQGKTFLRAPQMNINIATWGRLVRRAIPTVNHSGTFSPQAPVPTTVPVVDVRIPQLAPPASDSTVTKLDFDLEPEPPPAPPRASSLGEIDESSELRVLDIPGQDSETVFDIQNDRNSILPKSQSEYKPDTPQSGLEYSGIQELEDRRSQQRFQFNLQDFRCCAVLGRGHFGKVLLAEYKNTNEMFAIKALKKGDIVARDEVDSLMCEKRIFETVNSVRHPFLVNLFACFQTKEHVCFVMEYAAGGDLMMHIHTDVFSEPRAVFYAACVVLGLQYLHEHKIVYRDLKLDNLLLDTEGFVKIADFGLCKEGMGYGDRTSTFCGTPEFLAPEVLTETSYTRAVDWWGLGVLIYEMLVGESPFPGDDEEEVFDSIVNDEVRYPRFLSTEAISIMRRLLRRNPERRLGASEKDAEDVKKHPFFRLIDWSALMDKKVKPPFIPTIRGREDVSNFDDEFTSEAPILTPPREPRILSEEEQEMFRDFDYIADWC
T6 sequence (P36507 whole entry): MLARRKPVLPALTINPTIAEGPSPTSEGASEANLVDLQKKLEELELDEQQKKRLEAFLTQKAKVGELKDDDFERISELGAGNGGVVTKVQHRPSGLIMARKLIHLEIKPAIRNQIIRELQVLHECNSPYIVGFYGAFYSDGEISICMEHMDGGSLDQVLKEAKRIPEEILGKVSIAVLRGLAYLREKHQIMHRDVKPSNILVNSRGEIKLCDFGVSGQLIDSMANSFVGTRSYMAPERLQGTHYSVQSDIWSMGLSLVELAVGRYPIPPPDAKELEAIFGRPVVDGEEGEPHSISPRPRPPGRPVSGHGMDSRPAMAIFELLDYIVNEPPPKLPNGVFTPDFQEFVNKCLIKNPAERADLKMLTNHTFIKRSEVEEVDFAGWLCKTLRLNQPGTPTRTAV
T2 sequence (O95819 whole entry): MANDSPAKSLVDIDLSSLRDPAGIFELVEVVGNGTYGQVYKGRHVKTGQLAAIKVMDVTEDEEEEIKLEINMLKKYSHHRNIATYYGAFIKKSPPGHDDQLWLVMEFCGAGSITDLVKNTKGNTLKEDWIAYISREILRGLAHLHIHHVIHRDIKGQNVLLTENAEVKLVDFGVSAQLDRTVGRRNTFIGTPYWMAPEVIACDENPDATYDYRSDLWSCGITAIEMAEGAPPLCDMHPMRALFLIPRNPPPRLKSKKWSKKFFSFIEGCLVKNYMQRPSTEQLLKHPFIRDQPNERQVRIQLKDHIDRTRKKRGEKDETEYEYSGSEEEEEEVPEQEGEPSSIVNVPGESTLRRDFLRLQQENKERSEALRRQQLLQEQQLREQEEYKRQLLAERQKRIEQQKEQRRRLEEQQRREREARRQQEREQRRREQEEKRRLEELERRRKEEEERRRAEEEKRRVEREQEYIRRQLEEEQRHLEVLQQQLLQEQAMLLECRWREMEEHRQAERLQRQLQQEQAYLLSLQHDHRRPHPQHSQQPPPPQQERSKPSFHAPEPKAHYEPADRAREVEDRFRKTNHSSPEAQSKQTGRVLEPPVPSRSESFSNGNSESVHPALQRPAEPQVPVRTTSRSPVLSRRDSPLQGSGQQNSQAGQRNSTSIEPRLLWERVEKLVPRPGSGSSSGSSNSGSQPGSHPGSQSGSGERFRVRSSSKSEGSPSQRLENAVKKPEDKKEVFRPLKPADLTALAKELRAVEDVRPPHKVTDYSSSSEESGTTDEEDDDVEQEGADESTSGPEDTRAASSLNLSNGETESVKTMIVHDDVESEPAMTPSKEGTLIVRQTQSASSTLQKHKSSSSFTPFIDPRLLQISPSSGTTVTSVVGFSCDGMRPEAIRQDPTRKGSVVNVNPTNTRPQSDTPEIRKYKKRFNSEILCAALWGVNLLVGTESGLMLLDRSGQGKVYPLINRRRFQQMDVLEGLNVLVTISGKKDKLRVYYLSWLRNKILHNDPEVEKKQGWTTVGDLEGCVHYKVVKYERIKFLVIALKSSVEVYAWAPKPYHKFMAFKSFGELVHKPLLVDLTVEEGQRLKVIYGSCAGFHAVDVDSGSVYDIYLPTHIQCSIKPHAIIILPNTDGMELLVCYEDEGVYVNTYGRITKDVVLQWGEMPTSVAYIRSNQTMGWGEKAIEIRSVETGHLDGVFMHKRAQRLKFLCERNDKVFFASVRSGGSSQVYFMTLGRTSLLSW

CC(C)n1c(=O)ccc2cnc(Nc3ccc(OCCN)cc3)nc21 [V16742]
r (3 MG/1 MG LYSATE) ([1]; 3 mg vs 1 mg lysate): 3.92 | r (5 h/2.5 h INC. TIME) ([1]; 5 h vs 2.5 h incubation time): 2.26 | rAVERAGE (CTRL/1 INC) [1, 8]: 0.11 | Ki ([1]; immobilized VI16742): 185 µM | rAVERAGE (2 INC/1 INC) ([1]; second vs first incubation): 0.78 | rAVERAGE (CTRL/1 INC) [2, 8]: 0.05 | Ki ([2]; immobilized VI16742): 75.7 µM | rAVERAGE (2 INC/1 INC) ([2]; second vs first incubation): 0.59 | r (3 MG/1 MG LYSATE) ([3]; 3 mg vs 1 mg lysate): 2.87 | r (5 h/2.5 h INC. TIME) ([3]; 5 h vs 2.5 h incubation time): 1.35 | rAVERAGE (CTRL/1 INC) [3, 8]: 0.03 | Ki ([3]; immobilized VI16742): 115 µM | rAVERAGE (2 INC/1 INC) ([3]; second vs first incubation): 0.69 | rAVERAGE (CTRL/1 INC) [4, 8]: 0.03 | Ki ([4]; immobilized VI16742): 100 µM | rAVERAGE (2 INC/1 INC) ([4]; second vs first incubation): 0.66 | rAVERAGE (CTRL/1 INC) [5, 8]: 0.06 | Ki ([5]; immobilized VI16742): 127 µM | rAVERAGE (2 INC/1 INC) ([5]; second vs first incubation): 0.71 | r (5 h/2.5 h INC. TIME) ([6]; 5 h vs 2.5 h incubation time): 2.03 | rAVERAGE (CTRL/1 INC) [6, 8]: 0.03 | Ki ([6]; immobilized VI16742): 177 µM | rAVERAGE (2 INC/1 INC) ([6]; second vs first incubation): 0.77

COc1cc2ncnc(Nc3ccc(F)c(Cl)c3)c2cc1OCCCN1CCOCC1 [gefitinib]
rAVERAGE (10 nM/0 nM Gef.) [7]: 0.88 | rAVERAGE (100 nM/0 nM Gef.) [7]: 0.90 | rAVERAGE (1000 nM/0 nM Gef.) [7]: 0.85 | rAVERAGE (10000 nM/0 nM Gef.) [7]: 0.33
